Reference: patent publication US20100298447A1, “COMPOSITE PRODUCT OF LOW-SOLUBILITY DRUG AND SURFACTANT, AND PROCESS FOR PRODUCTION THEREOF” (priority 2007, published 2010)

Test: Solubility of aciclovir in water at room temperature
Format: physicochemical
Details: room temperature (25° C.)
Description: Thus, an S/O solution could not be obtained. Thus, an aciclovir dispersion was prepared in the form of an S/O solution.

- solubility in water: very poor
Compound: Nc1nc2c(ncn2COCCO)c(=O)[nH]1 [aciclovir]
